From patent publication US12377175B2, “Trifunctional constructs with tunable pharmacokinetics useful in imaging and anti-tumor therapies” (Cornell University, priority 2016, dated 2025)
Values joined by “and” are separate entries in the source; they are usually repeats but may differ in a detail not shown here. Equal entries are not always repeated.

Tested on: LNCaP xenograft tumor-bearing mice
Experiment: Biodistribution of 225Ac-macropa-RPS-070 in LNCaP xenograft mice
Assay type: in vivo, mouse
Conditions: for Organ distribution, Blood, Mean / Organ distribution, Bone, Mean / Organ distribution, Heart, Mean / Organ distribution, Kidneys, Mean / Organ distribution, Large Intestine, Mean / Organ distribution, Liver, Mean / Organ distribution, Lungs, Mean / Organ distribution, Muscle, Mean / Organ distribution, Pancreas, Mean / Organ distribution, Small Intestine, Mean / Organ distribution, Spleen, Mean / Organ distribution, Stomach, Mean / Organ distribution, Tumor, Mean: n = 5
Protocol: Cell Culture. […] Cell culture supplies were from Invitrogen unless otherwise noted.
Inoculation of Mice with Xenografts. All animal studies were approved by the Institutional Animal Care and Use Committee of Weill Cornell Medicine and were undertaken in accordance with the guidelines set forth by the USPHS Policy on Humane Care and Use of Laboratory Animals. Animals were housed under standard conditions in approved facilities with 12 h light/dark cycles. Food and water was provided ad libitum throughout the course of the studies. Hairless male nu/nu mice were purchased from the Jackson Laboratory. For inoculation in mice, LNCaP cells were suspended at 4×10^7 cells/mL in a 1:1 mixture of PBS:Matrigel (BD Biosciences). Each mouse was injected in the left flank with 0.25 mL of the cell suspension. Biodistributions were conducted when tumors were in the range 100-400 mm^3.
Biodistribution of […] in LNCaP xenograft mice. Fifteen LNCaP xenograft tumor-bearing mice (5 per time point) were injected intravenously with a bolus injection of 85-95 kBq and 100 ng ([…]) of each ligand. The mice were sacrificed by cervical dislocation at 4, 24 and 96 h post injection. A blood sample was removed, and a full biodistribution study was conducted on the following organs (with contents): heart, lungs, liver, small intestine, large intestine, stomach, spleen, pancreas, kidneys, muscle, bone, and tumor. Tissues were weighed and counted on a 2470 Wizard Automatic Gamma Counter (Perkin Elmer). 1% ID/mL samples were counted prior to and following each set of tissue samples to enable decay correction to be undertaken. Counts were corrected for decay and for activity injected, and tissue uptake was expressed as percent injected dose per gram (% ID/g). Standard error measurement was calculated for each data point.

**Q.** `O=C(O)CC[C@H](NC(=O)N[C@@H](CCCCNC(=O)Nc1cccc(-c2cn(CCOCCOCCOCCOCCOCCOCCC(=O)N[C@@H](CCCCNC(=S)Nc3cc(CN4CCOCCOCCN(Cc5cccc(C(=O)[O-])n5)CCOCCOCC4)nc(C(=O)[O-])c3)C(=O)N[C@@H](CCCCNC(=O)Cc3ccc(I)cc3)C(=O)O)nn2)c1)C(=O)O)C(=O)O.[225Ac+3]` [225Ac-macropa-RPS-070] was tested. Which “Organ distribution, Blood, Mean” value (24 h after i.v. injection) did it give?
**A.** Its value is 0.2908 % ID/g.

**Q.** What about the “Organ distribution, Bone, Mean” value (24 h after i.v. injection) of the same compound?
**A.** The value was 0.9764 % ID/g.

**Q.** And the “Organ distribution, Heart, Mean” value (24 h after i.v. injection)?
**A.** Its value is 0.4964 % ID/g.

**Q.** What about the “Organ distribution, Kidneys, Mean” value (24 h after i.v. injection) of the same compound?
**A.** The value was 4.192 % ID/g.

**Q.** And the “Organ distribution, Large Intestine, Mean” value (24 h after i.v. injection)?
**A.** The value was 0.1315 % ID/g.

**Q.** And the “Organ distribution, Liver, Mean” value (24 h after i.v. injection)?
**A.** Its value is 1.364 % ID/g.

**Q.** And the “Organ distribution, Lungs, Mean” value (24 h after i.v. injection)?
**A.** The value was 0.4653 % ID/g.

**Q.** And the “Organ distribution, Muscle, Mean” value (24 h after i.v. injection)?
**A.** Its value is 0.5603 % ID/g.

**Q.** And the “Organ distribution, Pancreas, Mean” value (24 h after i.v. injection)?
**A.** The value was 0.3891 % ID/g.

**Q.** And the “Organ distribution, Small Intestine, Mean” value (24 h after i.v. injection)?
**A.** Its value is 0.09473 % ID/g.

**Q.** And the “Organ distribution, Spleen, Mean” value (24 h after i.v. injection)?
**A.** The value was 0.6122 % ID/g.

**Q.** What about the “Organ distribution, Stomach, Mean” value (24 h after i.v. injection) of the same compound?
**A.** Its value is 0.1326 % ID/g.

**Q.** And the “Organ distribution, Tumor, Mean” value (24 h after i.v. injection)?
**A.** Its value is 8.17 % ID/g.

**Q.** And the “Organ distribution, Blood, individual mice 1-5” value (96 h after i.v. injection)?
**A.** Its value is 0.1904 % ID/g and 0.1919 % ID/g and 0.1521 % ID/g and 0.1653 % ID/g and 0.2382 % ID/g.

**Q.** And the “Organ distribution, Bone, individual mice 1-5” value (96 h after i.v. injection)?
**A.** The value was 0.8639 % ID/g and 0.8687 % ID/g and 0.8383 % ID/g and 1.122 % ID/g and 0.8204 % ID/g.

**Q.** And the “Organ distribution, Heart, individual mice 1-5” value (96 h after i.v. injection)?
**A.** Its value is 0.3994 % ID/g and 0.424 % ID/g and 0.4286 % ID/g and 0.4459 % ID/g and 0.456 % ID/g.

**Q.** What about the “Organ distribution, Kidneys, individual mice 1-5” value (96 h after i.v. injection) of the same compound?
**A.** The value was 1.303 % ID/g and 1.3239 % ID/g and 2.004 % ID/g and 1.399 % ID/g and 1.46 % ID/g.

**Q.** What about the “Organ distribution, Large Intestine, individual mice 1-5” value (96 h after i.v. injection) of the same compound?
**A.** The value was 0.04349 % ID/g and 0.09663 % ID/g and 0.04522 % ID/g and 0.04198 % ID/g and 0.03927 % ID/g.

**Q.** What about the “Organ distribution, Liver, individual mice 1-5” value (96 h after i.v. injection) of the same compound?
**A.** The value was 0.7941 % ID/g and 0.8144 % ID/g and 0.733 % ID/g and 0.7917 % ID/g and 0.7942 % ID/g.

**Q.** And the “Organ distribution, Lungs, individual mice 1-5” value (96 h after i.v. injection)?
**A.** The value was 0.3016 % ID/g and 0.5091 % ID/g and 0.4694 % ID/g and 0.3781 % ID/g and 0.3698 % ID/g.

**Q.** What about the “Organ distribution, Muscle, individual mice 1-5” value (96 h after i.v. injection) of the same compound?
**A.** Its value is 0.3022 % ID/g and 0.5249 % ID/g and 0.2509 % ID/g and 0.2982 % ID/g and 0.2528 % ID/g.

**Q.** What about the “Organ distribution, Pancreas, individual mice 1-5” value (96 h after i.v. injection) of the same compound?
**A.** The value was 0.09848 % ID/g and 0.377 % ID/g and 0.3055 % ID/g and 0.3162 % ID/g and 0.3335 % ID/g.

**Q.** And the “Organ distribution, Small Intestine, individual mice 1-5” value (96 h after i.v. injection)?
**A.** The value was 0.04372 % ID/g and 0.0577 % ID/g and 0.03752 % ID/g and 0.04431 % ID/g and 0.04136 % ID/g.

**Q.** What about the “Organ distribution, Spleen, individual mice 1-5” value (96 h after i.v. injection) of the same compound?
**A.** Its value is 0.4837 % ID/g and 0.394 % ID/g and 0.4426 % ID/g and 0.4348 % ID/g and 0.5397 % ID/g.

**Q.** And the “Organ distribution, Stomach, individual mice 1-5” value (96 h after i.v. injection)?
**A.** The value was 0.03442 % ID/g and 0.04708 % ID/g and 0.03448 % ID/g and 0.02845 % ID/g and 0.02366 % ID/g.

**Q.** What about the “Organ distribution, Tumor, individual mice 1-5” value (96 h after i.v. injection) of the same compound?
**A.** The value was 4.043 % ID/g and 4.078 % ID/g and 6.74 % ID/g and 4.581 % ID/g and 4.845 % ID/g.

**Q.** And the “Organ distribution, Blood, Mean” value (96 h after i.v. injection)?
**A.** The value was 0.1876 % ID/g.

**Q.** What about the “Organ distribution, Bone, Mean” value (96 h after i.v. injection) of the same compound?
**A.** The value was 0.9027 % ID/g.

**Q.** And the “Organ distribution, Heart, Mean” value (96 h after i.v. injection)?
**A.** Its value is 0.4333 % ID/g.

**Q.** What about the “Organ distribution, Kidneys, Mean” value (96 h after i.v. injection) of the same compound?
**A.** Its value is 1.4978 % ID/g.

**Q.** What about the “Organ distribution, Large Intestine, Mean” value (96 h after i.v. injection) of the same compound?
**A.** The value was 0.05332 % ID/g.

**Q.** And the “Organ distribution, Liver, Mean” value (96 h after i.v. injection)?
**A.** Its value is 0.7855 % ID/g.

**Q.** And the “Organ distribution, Lungs, Mean” value (96 h after i.v. injection)?
**A.** The value was 0.4056 % ID/g.

**Q.** And the “Organ distribution, Muscle, Mean” value (96 h after i.v. injection)?
**A.** Its value is 0.3258 % ID/g.

**Q.** What about the “Organ distribution, Pancreas, Mean” value (96 h after i.v. injection) of the same compound?
**A.** Its value is 0.2861 % ID/g.

**Q.** What about the “Organ distribution, Small Intestine, Mean” value (96 h after i.v. injection) of the same compound?
**A.** Its value is 0.04492 % ID/g.

**Q.** And the “Organ distribution, Spleen, Mean” value (96 h after i.v. injection)?
**A.** Its value is 0.459 % ID/g.

**Q.** What about the “Organ distribution, Stomach, Mean” value (96 h after i.v. injection) of the same compound?
**A.** Its value is 0.03362 % ID/g.

**Q.** And the “Organ distribution, Tumor, Mean” value (96 h after i.v. injection)?
**A.** The value was 4.857 % ID/g.

**Q.** What about the “uptake by other organs (other than kidneys and tumor)” value (96 h post injection) of the same compound?
**A.** Its value is under 1 % ID/g.
